Experimental data taken from patent US9884832B2 (priority 2011, dated 2018).
Read-outs that look alike come from different tables or passages of the source.

How the values were obtained:
[1] = biological target: AM2 V27A (valine→alanine mutation at residue 27 in the M2 protein) (Influenza A virus, UniProt P0DOF5, V27A); type: cell-based, influenza virus A/Udorn/72
[2] = biological target: AM2 S31N (serine→asparagine mutation at residue 31 in the M2 protein) (Influenza A virus, UniProt P0DOF5, S31N); type: cell-based, influenza virus A/Udorn/72

Row | SMILES | V27A OOcyte Inhibition at 100 uM (%) ([1]; pH 5.5) | S31N OOcyte Inhibition at 100 uM (%) ([2]; pH 5.5) | V27A OOcyte Inhibition at 100 uM (%) [1] | S31N OOcyte Inhibition at 100 uM (%) [2]
1 | COC(=O)C(Cc1cnc[nH]1)NCC12CC3CC(CC(C3)C1)C2 (stereo not shown) [Example 3, 2-[(Adamantan-1-ylmethyl)-amino]-3-(3H-imidazol-4-yl)-propionic acid methyl ester] | B (key: (A)=31-95%; (B)=0-30%) | B (key: (A)=31-95%; (B)=0-30%) | – | –
2 | FC(F)(F)c1ccc(CNC23CC4CC(CC(C4)C2)C3)cc1 [Example 5a, Adamantan-1-yl-(4-trifluoromethyl-benzyl)-amine] | – | – | B (key: (A)=31-95%; (B)=0-30%) | B (key: (A)=31-95%; (B)=0-30%)
3 | Oc1ccc(CNC23CC4CC(CC(C4)C2)C3)cc1 [Example 9, 4-(Adamantan-1-ylaminomethyl)-phenol] | B (key: (A)=31-95%; (B)=0-30%) | A (key: (A)=31-95%; (B)=0-30%) | – | –
4 | CN(CCC#N)c1ccc(CNC23CC4CC(CC(C4)C2)C3)cc1 [Example 38, 3-((4-((Adamantan-1-ylamino)methyl)phenyl)(methyl)amino)propanenitrile] | B (key: (A)=31-95%; (B)=0-30%) | A (key: (A)=31-95%; (B)=0-30%) | – | –
5 | COc1ccc2cc(CNC34CC5CC(CC(C5)C3)C4)ccc2c1 [Example 40a, Adamantan-1-yl-(6-methoxy-naphthalen-2-ylmethyl)-amine] | – | – | A (key: (A)=31-95%; (B)=0-30%) | B (key: (A)=31-95%; (B)=0-30%)
6 | Oc1ccc(CNC23CC4CC(CC(C4)C2)C3)c(Cl)c1 [Example 58, 4-(Adamantan-1-ylaminomethyl)-3-chloro-phenol] | A (key: (A)=31-95%; (B)=0-30%) | B (key: (A)=31-95%; (B)=0-30%) | – | –
7 | c1cc(-c2csc(CNC34CC5CC(CC(C5)C3)C4)c2)cs1 [Example 152a, N-([3,3′-bithiophen]-5-ylmethyl)adamantan-1-amine] | – | – | A (key: (A)=31-95%; (B)=0-30%) | B (key: (A)=31-95%; (B)=0-30%)
8 | CC(=O)c1ccc(CNC23CC4CC(CC(C4)C2)C3)cc1 [Example 44a] | – | – | B (key: (A)=31-95%; (B)=0-30%) | B (key: (A)=31-95%; (B)=0-30%)
9 | CC1(C)C2CCC(CNCc3ccc(O)cc3O)C1C2 (stereo not shown) [Example 114, 4-{[(6,6-Dimethyl-bicyclo[3.1.1]hept-2-ylmethyl)-amino]methyl}-benzene-1,3-diol] | B (key: (A)=31-95%; (B)=0-30%) | B (key: (A)=31-95%; (B)=0-30%) | – | –
10 | c1c(CNC2C3CC4CC(C3)CC2C4)nc2n1CCS2 (stereo not shown) [Example 105, Adamantan-2-yl-(2,3-dihydro-imidazo[2,1-b]thiazol-6-ylmethyl)-amine] | B (key: (A)=31-95%; (B)=0-30%) | B (key: (A)=31-95%; (B)=0-30%) | – | –
11 | Oc1ccc(CN2CCC3(CCCCC3)CC2)c(O)c1 [Example 115, 4-(3-Aza-spiro[5.5]undec-3-ylmethyl)-benzene-1,3-diol] | B (key: (A)=31-95%; (B)=0-30%) | B (key: (A)=31-95%; (B)=0-30%) | – | –
12 | Cn1c(CNC23CC4CC(CC(C4)C2)C3)cc2sccc21 [Example 172a, Adamantan-1-yl-(4-methyl-4H-thieno[3,2-b]pyrrol-5-ylmethyl)-amine] | – | – | B (key: (A)=31-95%; (B)=0-30%) | B (key: (A)=31-95%; (B)=0-30%)
13 | c1cc2cc(CNC34CC5CC(CC(C5)C3)C4)ccc2s1 [Example 41a, N-(benzo[b]thiophen-5-ylmethyl)adamantan-1-amine] | – | – | A (key: (A)=31-95%; (B)=0-30%) | B (key: (A)=31-95%; (B)=0-30%)
14 | COc1ccc(CN(C)C23CC4CC(CC(C4)C2)C3)cc1 [Example 32, Adamantan-1-yl-(4-methoxy-benzyl)-methyl-amine] | B (key: (A)=31-95%; (B)=0-30%) | B (key: (A)=31-95%; (B)=0-30%) | – | –
15 | CSc1ccc(CNC2C3CC4CC(C3)CC2C4)cc1 (stereo not shown) [Example 103, Adamantan-2-yl-(4-methylsulfanyl-benzyl)-amine] | A (key: (A)=31-95%; (B)=0-30%) | A (key: (A)=31-95%; (B)=0-30%) | – | –
16 | O=[N+]([O-])c1ccc(CNC23CC4CC(CC(C4)C2)C3)cc1 [Example 19, Adamantan-1-yl-(4-nitro-benzyl)-amine] | B (key: (A)=31-95%; (B)=0-30%) | B (key: (A)=31-95%; (B)=0-30%) | – | –
17 | c1scc2[nH]c(CNC34CC5CC(CC(C5)C3)C4)nc12 [Example 171a, Adamantan-1-yl-(1H-thieno[3,4-d]imidazol-2-ylmethyl)-amine] | – | – | B (key: (A)=31-95%; (B)=0-30%) | A (key: (A)=31-95%; (B)=0-30%)
18 | Nc1ccc(CNC23CC4CC(CC(C4)C2)C3)cc1 [Example 11, Adamantan-1-yl-(4-amino-benzyl)-amine] | B (key: (A)=31-95%; (B)=0-30%) | B (key: (A)=31-95%; (B)=0-30%) | – | –
19 | c1ccn2c(CNC34CC5CC(CC(C5)C3)C4)cnc2c1 [Example 203a, Adamantan-1-yl-imidazo[1,2-a]pyridin-3-ylmethyl-amine] | – | – | B (key: (A)=31-95%; (B)=0-30%) | B (key: (A)=31-95%; (B)=0-30%)
20 | c1coc(COc2ccc(CNC34CC5CC(CC(C5)C3)C4)cc2)c1 [Example 21, Adamantan-1-yl-[4-(furan-2-ylmethoxy)-benzyl]-amine] | A (key: (A)=31-95%; (B)=0-30%) | A (key: (A)=31-95%; (B)=0-30%) | – | –
21 | Clc1ccc(COc2ccc(CNC34CC5CC(CC(C5)C3)C4)cc2)cc1 [Example 16a, Adamantan-1-yl-[4-(4-chloro-benzyloxy)-benzyl]-amine] | – | – | B (key: (A)=31-95%; (B)=0-30%) | A (key: (A)=31-95%; (B)=0-30%)
22 | c1cc2cn[nH]c2cc1CNC12CC3CC(CC(C3)C1)C2 [Example 95, Adamantan-1-yl-(1H-indazol-6-ylmethyl)-amine] | A (key: (A)=31-95%; (B)=0-30%) | B (key: (A)=31-95%; (B)=0-30%) | – | –
23 | NC(=O)c1ccc(CNC23CC4CC(CC(C4)C2)C3)cc1 [Example 18, 4-(Adamantan-1-ylaminomethyl)-benzamide] | B (key: (A)=31-95%; (B)=0-30%) | B (key: (A)=31-95%; (B)=0-30%) | – | –
24 | CC(NCc1ccc(O)cc1)C12CC3CC(CC(C3)C1)C2 (stereo not shown) [Example 4, 4-[(1-Adamantan-1-yl-ethylamino)-methyl]-phenol] | B (key: (A)=31-95%; (B)=0-30%) | B (key: (A)=31-95%; (B)=0-30%) | – | –
25 | c1coc(-c2ccc(CNC34CC5CC(CC(C5)C3)C4)s2)c1 [Example 136a, N-((5-(Furan-2-yl)thiophen-2-yl)methyl)adamantan-1-amine] | – | – | B (key: (A)=31-95%; (B)=0-30%) | A (key: (A)=31-95%; (B)=0-30%)
26 | c1csc(-c2ccc(-c3ccc(CNC45CC6CC(CC(C6)C4)C5)s3)s2)c1 [Example 157a, N-([2,2′:5′,2″-terthiophen]-5-ylmethyl)adamantan-1-amine] | – | – | B (key: (A)=31-95%; (B)=0-30%) | B (key: (A)=31-95%; (B)=0-30%)
